“Also recorded” adds a separate entry of the source.
Key:
[1] = test system: MCF-7 cells stably transfected with CUEDC2; assay: Cell growth by cell counting under different doses of tamoxifen; assay type: cell-based
Procedure: (§1) MCF-7 cells stably transfected with CUEDC2 were treated with different doses of tamoxifen, and then the cell growth was observed by a cell counting method. […] In order to eliminate nonspecific effects of over expression of CUEDC2 on cells growth, the inventors knocked down the CUEDC2 expression in the cells and did the same cell growth experiment. […] In order to verify the above conclusion, the inventors further conducted animal experiments. 5×10^6 MCF-7/vector or MCF-7/CUEDC2 cells were injected into the mammary fat pad of ovariectomized nude mice, and estrogen sustained-release tablets were embedded subcutaneously. When tumors grew to 100-150 mm^3, nude mice were divided into two groups randomly, and embedded with tamoxifen or control placebo pills subcutaneously.

[2] = test system: MCF-7/vector or MCF-7/CUEDC2 cells; assay: Tumor formation in ovariectomized nude mice (mammary fat pad xenograft); assay type: in vivo; conditions: tamoxifen sustained-release tablets subcutaneously, vs placebo
Procedure: 4-week-old female nude mice were purchased from Animal Laboratory Center of the Academy of Military Medical Sciences; the Cell Titer Glo Luminescent Cell Viability Assay was purchased from Promega Company; the Estrogen and tamoxifen sustained-release tablets were purchased from Innovative Research of America.
as §1

MCF-7 cells = assay: Crystal violet colony-formation assay; assay type: cell-based

## CC/C(=C(\c1ccccc1)c1ccc(OCCN(C)C)cc1)c1ccccc1 [tamoxifen]
[1]; MCF-7 cells over expressing CUEDC2, different doses of tamoxifen
  sensitivity of cell growth to tamoxifen: insensitive
[1]; MCF-7 cells over expressing CUEDC2 knocked down by CUEDC2 siRNA
  sensitivity of cells to tamoxifen after CUEDC2 knockdown: restored the sensitivity
[2]; MCF-7/CUEDC2 cells in nude mice
  tumor growth: could not effectively inhibit; also recorded: cannot inhibit tumor growth effectively
[2]; MCF-7/vector cells in nude mice
  tumor growth: significantly inhibit
MCF-7 cells; cells over expressing CUEDC2
  sensitivity to tamoxifen-induced cell death: insensitive
MCF-7 cells; control MCF-7 empty vector cells
  sensitivity to tamoxifen-induced cell death: sensitive
